Experiment: effective fugacity rate on heating with hot air current from ring heater and fan (FIG. 1 apparatus)
Format: physicochemical
Details: Table 5, Comparative Example 1: without blowing agent
Experimental: This invention will be described below in greater detail with reference to examples, in which the effective fugacity rates of active ingredients are determined by volatilizing the ingredient within a closed container, passing the air within the container through a solvent which completely dissolves the active ingredients, such as benzene, acetone, water, chloroform or dichloromethane to cause the solvent to absorb the vaporized ingredient in the air, concentrating the solvent and subjecting the concentrate to gas chromatography. The fugacity rate is expressed in terms of the ratio in percent of the quantity of the vaporized active ingredient to the quantity of the ingredient initially admixed with a blowing agent.
Each of the specimen mixtures of insecticide and blowing agent listed in Table 2 is placed in an inner case 8 (60 cm^3 in capacity) fitted in an apparatus (15 cm in diameter and 15 cm in height) provided in its passage 2 with the same ring heater 6 as shown in FIG. 1.
The ring heater 6 (power 400 W) and a fan 4 (with 4 blades) are energized to produce a hot air current. The fan 4 is driven at 3000 r.p.m. The mixture is heated for about 5 minutes (up to a temperature of about 300° C.) with the hot air current to thermally decompose the blowing agent and diffuse the vapor of the insecticide. […]

Structure (SMILES): CC(C)=CC1C(C(=O)OCc2coc(Cc3ccccc3)c2)C1(C)C (stereo not shown) [Specimen 27]
- effective fugacity rate: 0.4%

— patent publication US4228124A, “Fumigating method and apparatus” (priority 1979, dated 1980)
